Results taken from US20230414552A1, “NOVEL METHODS” (Colgate-Palmolive Company, priority 2020, published 2023).

Columns and labels:
Assay type in all cases: cell-based
PDLSCs [1] = test: Alizarin red staining of PDLSC osteogenesis under osteogenic induction; details: for Mineralized Area (% Total Area): control 47% ± 3.61
Experimental: To examine the effect of natural compounds PEITC and resveratrol in PDLSC osteogenesis, cells are treated with 1 uM PEITC or 5 uM resveratrol under osteogenic induction. […] The stained positive areas are then quantifiable using NIH ImageJ software and shown as a percentage of the total area. To examine the effect of natural compounds yellow and white curcumin extracts in GMSC and PDLSC osteogenesis, cells are treated with 5 μM yellow and white curcumin extracts under osteogenic induction. Alizarin red staining show yellow curcumin extract, but not white curcumin extract treatment elevated osteogenic differentiation, as indicated by increased mineralized nodule formation. The stained positive areas were quantified using NIH ImageJ software and shown as a percentage of the total area.

PDLSCs [2] = test: Western blot of osteogenic genes Runx2 and ALP in PDLSCs; details: PDLSC, 1 uM PEITC or 5 uM resveratrol, osteogenic induction
Experimental: The expression of the osteogenic genes runt-related transcription factor 2 (Runx2) and alkaline phosphatase (ALP) are also elevated in PEITC or resveratrol treated groups, assessable by Western blot. […] To examine the effect of natural compounds yellow and white curcumin extracts in GMSC and PDLSC osteogenesis, cells are treated with 5 μM yellow and white curcumin extracts under osteogenic induction. Alizarin red staining show yellow curcumin extract, but not white curcumin extract treatment elevated osteogenic differentiation, as indicated by increased mineralized nodule formation. The stained positive areas were quantified using NIH ImageJ software and shown as a percentage of the total area.

BMSCs = test: BrdU analysis of BMSC proliferation (control cells); details: BMSCs as control cells
From the text: (§1) To examine whether ERK activator can elevate PDLSC function through Wnt signaling, five different ERK activators are used to treat PDLSCs, and BMSCs (“Bone marrow-derived mesenchymal stem/stromal cells”) serve as the control in this experiment.

PDLSCs [3] = test: Toluidine blue staining of surviving PDLSCs after co-culture with activated T cells
From the text: After co-culture, toluidine blue staining allows for observation of the surviving PDLSCs that remain on the culture plates as positive staining. […] Natural ERK activators, PEITC and resveratrol, protect PDLSCs survival.

PDLSCs [4] = test: BrdU analysis of PDLSC proliferation; details: ERK activator treatment of PDLSCs
From the text: as §1

CD3+ T cells = test: PDLSC/T cell co-culture, flow cytometric analysis of apoptotic T cells; details: flow cytometry
Experimental: PEITC and resveratrol are tested to determine whether they contribute to PDLSC immunomodulation. A PDLSC/T cell co-culture experiment examines the immunomodulatory properties of PDLSCs with different compounds treatment.

Wnt/β-catenin = test: Western blot of ERK downstream signaling in PDLSCs; details: PDLSCs after treatment
From the text: Subsequently, ERK downstream signaling pathways involve screening using a Western blot technique. This includes screening for Shp2 signaling, Notch signaling, and Wnt signaling.

GMSC = test: BrdU incorporation assay of GMSC proliferation; details: for Brdu + BMSC/Total Cells (%): control 28.1% ± 0.75

Compound | osteogenic differentiation, mineralized nodule formation (Alizarin red staining) (PDLSCs [1]; 1 uM PEITC) | Mineralized Area (% Total Area) (PDLSCs [1]; 1 μM) | expression of Runx2 (Western blot) (PDLSCs [2]) | expression of alkaline phosphatase (ALP) (Western blot) (PDLSCs [2]) | effect on proliferation rate in BMSCs (BrdU analysis) (BMSCs) | PDLSC survival from activated T cell attack (toluidine blue staining) (PDLSCs [3]) | PDLSC proliferation rate (BrdU analysis) (PDLSCs [4]) | PDLSC immunomodulation (AnnexinV+7AAD+ double positive apoptotic CD3+ T cells) (CD3+ T cells) | Wnt/β-catenin activation (Western blot) (Wnt/β-catenin) | GMSC cell proliferation (BrdU incorporation assay) (GMSC; 1 uM) | Brdu + BMSC/Total Cells (%) (GMSC; 1 μM) | osteogenic differentiation, mineralized nodule formation (Alizarin red staining) (PDLSCs [1]; 5 uM resveratrol) | Mineralized Area (% Total Area) (PDLSCs [1]; 5 μM) | GMSC cell proliferation (BrdU incorporation assay) (GMSC; 5 uM) | Brdu + BMSC/Total Cells (%) (GMSC; 5 μM)
S=C=NCCc1ccccc1 [PEITC, Phenethyl Isothiocyanate] | elevate | 65% ± 3.46 | elevated | elevated | not observable | protect | significantly increases | significantly promotes | highly activated | significantly elevated | 48.6% ± 4.79 | – | – | – | –
Oc1ccc(/C=C/c2cc(O)cc(O)c2)cc1 [resveratrol, 3,5,4′-trihydroxy-trans-stilbene] | – | – | elevated | elevated | not observable | protect | significantly increases | significantly promotes | highly activated | – | – | elevate | 59% ± 2.00 | significantly elevated | 47.6% ± 3.17
CC(C)(C)c1cc(O)ccc1O [t-Butylhydroquinone, reference compound] | – | – | – | – | not observable | – | significantly increases | – | highly activated | – | – | – | – | – | –
